In test [1] the test system is collagen I, collagen V, fibulin 1, fibronectin, αSMA protein in phLFs. Briefly: Western blotting of ECM proteins and αSMA in phLFs (lysates and medium supernatants). It counts as cell-based, human. The protocol:
Cells were scraped off the plastic dish directly into 200 μl ice-cold RIPA buffer containing 1× Roche complete mini protease inhibitor cocktail. After incubating the samples for 30 minutes on ice, insoluble material was removed by centrifugation at 14.000 g for 15 minutes at 4° C. and the supernatant was further processed. Samples were mixed with 50 mM Tris-HCl, pH 6.8, 100 mM DTT, 2% SDS, 1% bromphenol blue, and 10% glycerol, and proteins were separated using standard SDS-10% PAGE. For immunoblotting, proteins were transferred to PVDF (Millipore (Billerica, MA, (USA)), 0.45 μm or 0.2 μm) membranes, which were blocked with 5% milk in TBST (0.1% Tween 20 in TBS) and incubated with primary, followed by HRP-conjugated secondary antibodies over night at 4° C. and at room temperature for 1 hour, respectively. For immunoblotting the following primary antibodies were used: monoclonal mouse anticollagen type 5 (1 mg/mL) from […] (Cat #sc-166155), polyclonal rabbit anti-collagen type 3 (1 mg/mL) from Rockland (Cat #600-401-105), polyclonal rabbit anti-collagen type 1 (1 mg/mL) from Rockland (Cat #600-401-103-0.5), monoclonal mouse anti-fibulin 1 (1 mg/mL) from SantaCruz (Cat #sc-25281), polyclonal rabbit anti-fibronectin (1 mg/mL) from SantaCruz (Cat #sc-9068), and monoclonal mouse anti-p-actin-peroxidase (AC-15, Sigma, 1:10000). Goat anti-rabbit and goat anti-mouse IgG conjugated to horseradish peroxidase (Cell Signaling, 1:10000) were applied as secondary antibodies. CXCL/IL-8 concentrations were determined using Human IL-8/CXCL8 DuoSet ELISA (DY208-05) according to the manufacturer's protocol.
(In western blotting, separated proteins are transferred to a membrane and probed.)

Test [2] has as its system ECM deposition of collagen I, collagen V and fibulin 1 by phLFs+TGFβ1. Kind of test: 3D ECM deposition assay (collagen I, collagen V, fibulin 1), dose-response and live imaging. To be noted: phLFs+TGFβ1+EDHB. It counts as cell-based, human. The protocol: phLFs were cultured in DMEM F-12 medium with 20% fetal bovine serum (FBS) and antibiotic supplement as mentioned above. Cells were seeded with 6000 cells/well in 384-well CellCarrier plates (Perkin Elmer, Cat #6007550). Following overnight incubation, cells were starved in serum-reduced medium (1% FBS with 0.1 mM 2-phosphoascorbate (Sigma, Cat #49752)) for 24 h. Afterwards, cells were treated with TGFβ1 (1 ng/ml) or vehicle, and additionally small molecules or appropriate vehicle controls were added. […] Fluorescenceconjugation of the collagen type 1 antibody was done by using the AlexaFluor-555 Protein Labeling Kit (Invitrogen, Cat #A20174) according to manufacturer's instructions. […]
Following fixation, the automated imaging was achieved by using aconfocal laser scanning microscope (LSM710, Zeiss) with automated focus detection for three-dimensional image acquisition (1024 px×1024 px×9 px which equals a dimension of 1417 μm×1417 μm×16 μm). For post-acquisition analysis images were imported into IMARIS software (Bitplane) and volume detection or alternatively quantification of the mean fluorescence intensity, as well as Hoechst-stained cell nuclei were automatically counted by using Imaris' spot detection algorithm. […]

In test [3] the test system is TGFβ1-induced fibulin-1 ECM deposition in primary human lung IPF-fibroblasts (phLFs). Briefly: Assessing N23P activity in inhibiting ECM deposition in IPF-fibroblasts (fibulin-1 MFI). Conditions: Homo sapiens, 72 h, 10 μM, TGFβ1 1 ng/ml, MFI. It counts as cell-based. Here is the method:
phLFs were cultured in DMEM F-12 medium with 20% fetal bovine serum (FBS) and antibiotic supplement as mentioned above. Cells were seeded with 6000 cells/well in 384-well CellCarrier plates (Perkin Elmer, Cat #6007550). Following overnight incubation, cells were starved in serum-reduced medium (1% FBS with 0.1 mM 2-phosphoascorbate (Sigma, Cat #49752)) for 24 h. Afterwards, cells were treated with TGFβ1 (1 ng/ml) or vehicle, and additionally small molecules or appropriate vehicle controls were added. After 72 h of incubation, medium was changed for starving medium with 1 μg/mL AlexaFluor-488 fluorophore conjugated anti-collagen-type-5 antibodies (SantaCruz, Clone C-5, Cat #sc-166155 AF488), 0.66 μg/mL AlexaFluor-555 fluorophore conjugated anti-collagen-type-1 antibodies (Rockland, Cat #600-401-103-0.1), and 1 μg/mL AlexaFluor-637 fluorophore conjugated anti-fibulin 1 antibodies (SantaCruz, Clone C-5, Cat #sc-25281 AF647) and 1 μg/mL Hoechst H33342 (Sigma). Fluorescenceconjugation of the collagen type 1 antibody was done by using the AlexaFluor-555 Protein Labeling Kit (Invitrogen, Cat #A20174) according to manufacturer's instructions. Labeling efficacy was controlled by photometrical means.
Following four hours of incubation, cells were washed three times with PBS and fixed with paraformaldehyde (PFA). For automated liquid handling in 384 well plates, an INTEGRA Assist Plus (INTEGRA, Zizers, Switzerland) equipped with an INTEGRA Viaflo 1I pipette (INTEGRA, Zizers, Switzerland, Cat #4642), 125 μL GripTips™ pipette tips (INTEGRA, Zizers, Switzerland, Cat #6464) and sterile reagent reservoirs (INTEGRA, Cat #4311) were applied. All automated pipetting steps with the INTEGRA Assist Plus were performed at 9.5 μL/s in order to ensure proper integrity and attachment of the deposited ECM to the culturing surface within the wells of the 384-well plates. During cell seeding the automated liquid handling was performed at 89.3 μL/s. Removal of liquids from the well-plates was done by manually inverting the plates.
Following fixation, the automated imaging was achieved by using aconfocal laser scanning microscope (LSM710, Zeiss) with automated focus detection for three-dimensional image acquisition (1024 px×1024 px×9 px which equals a dimension of 1417 μm×1417 μm×16 μm). For post-acquisition analysis images were imported into IMARIS software (Bitplane) and volume detection or alternatively quantification of the mean fluorescence intensity, as well as Hoechst-stained cell nuclei were automatically counted by using Imaris' spot detection algorithm.
Cells were seeded with 6000 cells/well in 384-well CellCarrier plates. After overnight incubation, cells were starved in serum-reduced medium (1% FBS with 0.1 mM 2-phosphoascorbate for 24 h). Then, phLFs were treated with TGFβ1 (1 ng/ml) or vehicle, and incubated together with synthesized N23Ps (10 μM) or appropriate vehicle controls. After 72 h of incubation, medium was changed for starvation medium with 1 μg/mL AlexaFluor-637 fluorophore conjugated anti-fibulin 1 antibodies (SantaCruz, Clone C-5, Cat #sc-25281 AF647) and 1 μg/mL Hoechst H33342 (Sigma). Following four hours of incubation, cells were washed three times with PBS and fixed with paraformaldehyde (PFA). Following fixation, the automated imaging was achieved by using a confocal laser scanning microscope (LSM710, Zeiss) with automated focus detection for three-dimensional image acquisition (1024 px×1024 px×9 px which equals a dimension of 1417 μm×1417 μm×16 μm). For post-acquisition analysis images were imported into IMARIS software (Bitplane) and quantified for the mean fluorescence intensity, as well as Hoechst-stained cell nuclei were automatically counted by using Imaris' spot detection algorithm.
Assessment of ECM inhibition I: Mean fluorescence intensity (MFI) values represented the degree of fibulin-1 ECM deposition in three different IPF-phLFs (n=3). […]

The mark [4] stands for this setting: concomitant treatment with TGFβ1.
[5] abbreviates: three different IPF-phLFs (n=3).

As to `C[C@H]1CCC/C=C/[C@@H]2C[C@H](O)C[C@H]2[C@H](O)/C=C/C(=O)O1` [BrefeldinA], the “secretion of collagen I and fibronectin” value in test [1] (medium supernatants of phLFs) was “inhibited the secretion”.
As for `CCOC(=O)c1ccc(O)c(O)c1` [EDHB, Ethyl-3,4-dihydroxy-benzoate], the “ECM deposition of collagen I, collagen V and fibulin 1” value in test [2] is “inhibits the ECM deposition”. Besides, in test [1] (setting [4]), the “expression of intracellular collagen I, collagen V and fibulin 1” value was “statistically significant suppression”; the “secreted collagen I” value is reported as “significant suppression”.
One may read the inhibition as the change of the read-out against control, counted positive when it falls. A high value points to a response far below the control. For `O=C(/C=C/c1ccc2c(c1)OC(F)(F)O2)Nc1ccc(F)c(F)c1OCCC1CC1` [Example 156, (E)-N-(2-(2-cyclopropylethoxy)-3,4-difluorophenyl)-3-(2,2-difluorobenzo[d][1,3]dioxol-5-yl)acrylamide], the inhibition at 10 µM in test [3] (one or two different IPF-phLFs (n=1-2)) lay within 60 to 90%.
The compound `CCCCOc1ccccc1NC(=O)/C=C/c1ccc2occc2c1` [Example 37, (E)-3-(benzofuran-5-yl)-N-(2-butoxyphenyl)acrylamide] had an inhibition at 10 µM in test [3] (setting [5]) of more than 90%.
Regarding `CCCCOc1c(NC(=O)/C=C/c2ccc(OC)cc2)ccc(F)c1F` [Example 13], in test [3] (setting [5]), the inhibition at 10 µM was more than 90%.
Consider `CCCCOc1ccccc1NC(=O)/C=C/c1cc(F)c(OC)c(F)c1` [Example 33, (E)-N-(2-butoxyphenyl)-3-(3,5-difluoro-4-methoxyphenyl)acrylamide], for which, in test [3] (setting [5]), the inhibition at 10 µM was in the range of 60 to 90%.
Still for that read-out and setting: with `CCCCOc1ccccc1NC(=O)/C=C/c1cccc(OC)c1` [Example 7, (E)-N-(2-butoxyphenyl)-3-(3-methoxyphenyl)acrylamide] the figure was 60 to 90%.
In test [3] (setting [5]), `COc1ccc(/C=C/C(=O)Nc2ccccc2OCc2ccc(F)cc2)cc1` [Example 5, (E)-N-(2-((4-fluorobenzyl)oxy)phenyl)-3-(4-methoxyphenyl)acrylamide] came in with an inhibition at 10 µM of more than 90%.

These data come from patent US20240294465A1, “NOVEL ANTI-FIBROTIC DRUGS” (HELMHOLTZ ZENTRUM MUNCHEN - DEUTSCHES FORSCHUNGSZENTRUM FUR …, priority 2021, published 2024).
